Data on 22 compounds can be found in ChEMBL document CHEMBL1141942, “Novel 7-methoxy-6-oxazol-5-yl-2,3-dihydro-1H-quinazolin-4-ones as IMPDH inhibitors” (Bioorg Med Chem Lett, 2005).

A word on the inhibition: it is the change of the read-out against control, counted positive when it falls. Lower therefore signals a weak effect. In general, IC50 refers to the concentration needed to halve the response being measured. Usually microsomal CLint stands for a measure of how fast metabolising enzymes remove a compound, apart from limits set by blood flow. The low end stands for slow turnover, the high end for rapid turnover. The term solubility denotes the dissolved amount per volume that the medium holds.

Data set [1] has as its target T1, Inosine-5'-monophosphate dehydrogenase 2 (Homo sapiens, UniProt P12268). The note with it: 10 uM.
Description: Inhibitory activity against IMPDH II at 10 uM
The target of data set [2] is T1, Inosine-5'-monophosphate dehydrogenase 2. The data set is described as follows: Inhibitory activity against IMPDH II.
Data set [3] can be described thus: Intrinsic clearance in human liver microsomes. The data set is classed as ADME, Microsome. A general note: Liver microsomes are a subcellular fraction often used to study metabolism.
The subject of data set [4] is PBMC. Put plainly: Antiproliferative activity in PMBC. The data set is classed as functional, cell-based. Conditions: Homo sapiens.
Data set [5] in a line: Solubility at pH 6.5. The data set is classed as physicochemical. Conditions: buffer.

≈ marks a conversion by molar mass, not a printed value.

In data set [1], `COC(=O)[C@H]1C[C@@]2(CN1C(=O)OC(C)(C)C)Nc1cc(OC)c(-c3cnco3)cc1C(=O)N2C` displayed an inhibition of 26%.

Consider `COC(=O)[C@@H]1C[C@@]2(CN1C(=O)OC(C)(C)C)Nc1cc(OC)c(-c3cnco3)cc1C(=O)N2C`, for which, in data set [2], half-maximal inhibition (IC50) required 948 nM.

For `COc1cc2c(cc1-c1cnco1)C(=O)N(C)C1(CCN(C(=O)N3CCCCC3)C1)N2` (stereo unspecified), the intrinsic metabolic clearance (microsomal CLint) in data set [3] turned out to be 152 µL/min/mg. For the same compound, the 50% inhibitory concentration (IC50) in data set [4] came out at 1800 nM; in data set [2], 68 nM.

`CCN(CC)C(=O)N1CCC2(C1)Nc1cc(OC)c(-c3cnco3)cc1C(=O)N2C` (stereo unspecified) displayed an intrinsic clearance (microsomal CLint) in data set [3] of 92 µL/min/mg. In addition, the IC50 in data set [4] turned out to be 540 nM; in data set [2] it was 45 nM. Also, the concentration in solution in data set [5] (solubility) came to 813 µg/mL (≈ 1970 µM).

As to `COc1cc2c(cc1-c1cnco1)C(=O)N(C)C1(CCN(C(=O)N(C)c3ccccc3)C1)N2` (stereo unspecified), the intrinsic metabolic clearance (microsomal CLint) in data set [3] stood at 144 µL/min/mg. For the same compound, the 50% inhibitory concentration (IC50) in data set [4] is 860 nM; in data set [2], 64 nM.

Take `COc1cc2c(cc1-c1cnco1)C(=O)N(C)C1(CCN(C(=O)OC(C)(C)C)C1)N2` (stereo unspecified): the intrinsic clearance (microsomal CLint) in data set [3] amounted to 42 µL/min/mg. Besides, the concentration for half-maximal inhibition (IC50) in data set [4] was determined as 970 nM; in data set [2], 104 nM. Further, the concentration in solution in data set [5] (solubility) was 101 µg/mL (≈ 244 µM).

In data set [3], `COc1cc2c(cc1-c1cnco1)C(=O)N(C)C1(CCN(C(=O)N(C)c3ccc(F)cc3F)C1)N2` (stereo unspecified) registered a microsomal CLint of 97 µL/min/mg. Moreover, the results for the IC50 in data set [4] and in data set [2] were 1200 nM and 51 nM, respectively.

For `COc1cc2c(cc1-c1cnco1)C(=O)N(C)C1(CCCC1)N2`, the IC50 was 8500 nM in data set [4] and 328 nM in data set [2].

On to `COC(=O)[C@@H]1C[C@]2(CN1C(=O)OC(C)(C)C)Nc1cc(OC)c(-c3cnco3)cc1C(=O)N2C`, for which, in data set [2], the 50% inhibitory concentration (IC50) was found to be 369 nM.

For `COC(=O)[C@H]1C[C@]2(CN1C(=O)OC(C)(C)C)Nc1cc(OC)c(-c3cnco3)cc1C(=O)N2C`, the microsomal CLint in data set [3] worked out at 18 µL/min/mg. Moreover, the IC50 amounted to 1500 nM in data set [4] and 35 nM in data set [2].

In the case of `COc1cc2c(cc1-c1cnco1)C(=O)N(C)C1(Cc3ccsc3C1)N2` (stereo unspecified), the half-inhibitory concentration (IC50) in data set [4] turned out to be 1900 nM; in data set [2], 96 nM.

As to `COc1cc2c(cc1-c1cnco1)C(=O)N(CCc1ccncc1)C(C)(C)N2`, the results for the half-maximal inhibitory concentration (IC50) in data set [4] and in data set [2] were 37000 nM and 300 nM, respectively.

With `COc1cc2c(cc1-c1cnco1)C(=O)N(C)C(C)(/C=C/c1ccccc1)N2` (stereo unspecified), the half-inhibitory concentration (IC50) was found to be 3000 nM in data set [4] and 49 nM in data set [2].

As to `CCNC(=O)N1CCC2(C1)Nc1cc(OC)c(-c3cnco3)cc1C(=O)N2C` (stereo unspecified), the microsomal CLint in data set [3] is 11 µL/min/mg. In addition, the 50% inhibitory concentration (IC50) in data set [4] was 7200 nM; in data set [2], 119 nM.

As for `COc1cc2c(cc1-c1cnco1)C(=O)N(C)C1(CCN(C(=O)N(C)OC)C1)N2` (stereo unspecified), the microsomal CLint in data set [3] came out at 38 µL/min/mg. The IC50 in data set [4] was determined as 1900 nM; in data set [2] it was 79 nM.

Consider `COc1cc2c(cc1-c1cnco1)C(=O)N(C)C(C)(C)N2`, for which the figures for the IC50 in data set [4] and in data set [2] were 21000 nM and 192 nM, respectively. Further, the solubility in data set [5] was 77 µg/mL (≈ 268 µM).

Consider `COc1cc2c(cc1-c1cnco1)C(=O)N(C)C1(CCN(C(=O)Nc3ccccc3)C1)N2` (stereo unspecified), for which the microsomal CLint in data set [3] was 19 µL/min/mg. For the same compound, the IC50 in data set [4] is 16000 nM; in data set [2] it was 393 nM.

With `COc1cc2[nH]c(=O)n(C)c(=O)c2cc1-c1cnco1`, the concentration for half-maximal inhibition (IC50) in data set [4] amounted to 4000 nM. Moreover, the solubility in data set [5] came to 3 µg/mL (≈ 11 µM).

In the case of `CCOC(=O)N1CCC2(C1)Nc1cc(OC)c(-c3cnco3)cc1C(=O)N2C` (stereo unspecified), the microsomal CLint in data set [3] amounted to 24 µL/min/mg. The half-inhibitory concentration (IC50) in data set [4] worked out at 1200 nM; in data set [2], 80 nM.

For the compound `COc1cc2c(cc1-c1cnco1)C(=O)N(C)C1(CCN(C(=O)C(C)(C)C)C1)N2` (stereo unspecified), in data set [3], the microsomal CLint came to 46 µL/min/mg. In addition, the IC50 in data set [4] came out at 540 nM; in data set [2] it was 94 nM.

Regarding `COc1cc2c(cc1-c1cnco1)C(=O)N(C)C1(CCN(C(=O)N(C(C)C)C(C)C)C1)N2` (stereo unspecified), in data set [3], the microsomal CLint was 612 µL/min/mg. The IC50 was 70 nM in data set [4] and 71 nM in data set [2].

As for `COc1cc2c(cc1-c1cnco1)C(=O)N(C)C1(CCOCC1)N2`, the IC50 was determined as 11600 nM in data set [4] and 526 nM in data set [2].
